Reference: ChEMBL document CHEMBL5154848, “Synthesis of heterocyclic ring-fused analogs of HMG499 as novel degraders of HMG-CoA reductase that lower cholesterol” (Eur J Med Chem, 2022)
pEC50: −log10 of the molar value.

Tests used:
Assay type in all cases: cell-based
[1] = target: T1, 3-hydroxy-3-methylglutaryl-coenzyme A reductase (Cricetulus griseus, UniProt P00347); test: Induction of degradation of hamster HMGCR (TM1-8)-GFP (1 to 346 residues) transfected in CHO-7 cells incubated for 16 hrs in sterol-depleted medium by fluorescence based microplate reader assay
T1 sequence (P00347 whole entry): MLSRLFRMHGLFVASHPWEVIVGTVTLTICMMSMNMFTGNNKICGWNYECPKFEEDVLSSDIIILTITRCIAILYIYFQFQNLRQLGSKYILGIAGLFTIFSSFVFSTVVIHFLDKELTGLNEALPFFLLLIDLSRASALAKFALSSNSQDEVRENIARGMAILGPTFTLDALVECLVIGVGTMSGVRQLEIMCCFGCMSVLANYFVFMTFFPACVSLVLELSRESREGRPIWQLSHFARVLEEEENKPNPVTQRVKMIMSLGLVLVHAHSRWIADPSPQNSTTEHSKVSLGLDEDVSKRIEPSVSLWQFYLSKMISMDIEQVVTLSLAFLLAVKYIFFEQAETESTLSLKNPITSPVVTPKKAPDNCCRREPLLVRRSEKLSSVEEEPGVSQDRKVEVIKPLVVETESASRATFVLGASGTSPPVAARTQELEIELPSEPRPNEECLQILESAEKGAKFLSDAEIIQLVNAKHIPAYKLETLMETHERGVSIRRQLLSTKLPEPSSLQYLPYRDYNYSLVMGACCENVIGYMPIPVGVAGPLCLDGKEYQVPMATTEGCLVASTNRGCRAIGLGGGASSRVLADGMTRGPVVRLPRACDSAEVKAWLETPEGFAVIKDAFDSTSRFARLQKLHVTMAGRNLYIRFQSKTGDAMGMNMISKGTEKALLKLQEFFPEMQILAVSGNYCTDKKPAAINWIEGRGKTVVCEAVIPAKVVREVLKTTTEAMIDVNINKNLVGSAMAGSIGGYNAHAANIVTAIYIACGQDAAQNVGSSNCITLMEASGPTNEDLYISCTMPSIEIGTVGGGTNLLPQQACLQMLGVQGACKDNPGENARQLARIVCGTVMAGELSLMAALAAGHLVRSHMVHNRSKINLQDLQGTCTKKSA

[2] = Toxicity in human SV589 cells assessed as cholesterol accumulation in lysosome at 10 uM incubated for 16 hrs by immunofluorescence based confocal microscopy; conditions: sv-589, 16 h
[3] = Toxicity in human SV589 cells assessed as cholesterol accumulation in lysosome at 2.5 uM incubated for 16 hrs by immunofluorescence based confocal microscopy; conditions: sv-589, 16 h

SMILES: C[C@H](CCCCC(C)(C)O)[C@H]1CC[C@H]2[C@@H]3[C@@H](O)C=C4C(C)(C)[C@@H](O)CC[C@]4(C)[C@H]3CC[C@]12C
- pEC50 [1]: 6.39
- Activity [2]: Toxic

SMILES: CC(=O)n1ncc2c1C(C)(C)C1=CC[C@H]3[C@@H]4CC[C@H]([C@H](C)CCC(=O)Nc5ncc(C)s5)[C@@]4(C)CC[C@@H]3[C@@]1(C)C2
- pEC50 [1]: 4.90

SMILES: CCOC(=O)c1n[nH]c2c1C[C@@]1(C)C(=CC[C@H]3[C@@H]4CC[C@H]([C@H](C)CCC(=O)N5CCOCC5)[C@@]4(C)CC[C@@H]31)C2(C)C
- pEC50 [1]: 6.28

SMILES: CCC(=O)n1cnc2c1C(C)(C)C1=CC[C@H]3[C@@H]4CC[C@H]([C@H](C)CCC(=O)N5CCOCC5)[C@@]4(C)CC[C@@H]3[C@@]1(C)C2
- pEC50 [1]: 6.19
- Activity [2]: Non-Toxic

SMILES: CCCC(=O)n1cnc2c1C(C)(C)C1=CC[C@H]3[C@@H]4CC[C@H]([C@H](C)CCC(=O)N5CCOCC5)[C@@]4(C)CC[C@@H]3[C@@]1(C)C2
- pEC50 [1]: 6.28
- Activity [2]: Non-Toxic

SMILES: C[C@H](CCC(=O)N1CCOCC1)[C@H]1CC[C@H]2[C@@H]3CC=C4C(C)(C)c5nnsc5C[C@]4(C)[C@H]3CC[C@]12C
- pEC50 [1]: 6.08

SMILES: C[C@H](CCC(=O)O)[C@H]1CC[C@H]2[C@@H]3CC=C4C(C)(C)c5sc(N)nc5C[C@]4(C)[C@H]3CC[C@]12C
- pEC50 [1]: 5.31
- Activity [2]: Non-Toxic

SMILES: C[C@H](CCCC(C)(C)O)[C@H]1CC[C@H]2[C@@H]3[C@@H](O)C=C4C(C)(C)[C@@H](O)CC[C@]4(C)[C@H]3CC[C@]12C
- pEC50 [1]: 6.39
- Activity [2]: Toxic

SMILES: CC(=O)n1cnc2c1C(C)(C)C1=CC[C@H]3[C@@H]4CC[C@H]([C@H](C)CC(=O)N5CCOCC5)[C@@]4(C)CC[C@@H]3[C@@]1(C)C2
- pEC50 [1]: 6.55

SMILES: CC(=O)n1cnc2c1C(C)(C)C1=CC[C@H]3[C@@H]4CC[C@H]([C@H](C)CCCCC(=O)N5CCOCC5)[C@@]4(C)CC[C@@H]3[C@@]1(C)C2
- pEC50 [1]: 5.96

SMILES: CC(C)C(=O)n1cnc2c1C(C)(C)C1=C[C@H](O)[C@H]3[C@@H]4CC[C@H]([C@H](C)CCC(=O)N5CCOCC5)[C@@]4(C)CC[C@@H]3[C@@]1(C)C2
- pEC50 [1]: 6.14
- Activity [2]: Toxic

SMILES: CCNC(=O)CC[C@@H](C)[C@H]1CC[C@H]2[C@@H]3CC=C4C(C)(C)c5c(cnn5C(C)=O)C[C@]4(C)[C@H]3CC[C@]12C
- pEC50 [1]: 5.79

SMILES: CC(=O)n1ncc2c1C(C)(C)C1=CC[C@H]3[C@@H]4CC[C@H]([C@H](C)CCC(=O)NC5CCOCC5)[C@@]4(C)CC[C@@H]3[C@@]1(C)C2
- pEC50 [1]: 6.32

SMILES: CCC(O)(CC)CC[C@@H](C)[C@H]1CC[C@H]2[C@@H]3CC=C4C(C)(C)c5c(ncn5C(C)=O)C[C@]4(C)[C@H]3CC[C@]12C
- pEC50 [1]: 6.20
- Activity [2]: Non-Toxic

SMILES: CCC(O)(CC)CCCC[C@@H](C)[C@H]1CC[C@H]2[C@@H]3[C@@H](O)C=C4C(C)(C)[C@@H](O)CC[C@]4(C)[C@H]3CC[C@]12C
- pEC50 [1]: 6.39
- Activity [2]: Toxic

SMILES: C=CCC(O)(CC=C)CCC[C@@H](C)[C@H]1CC[C@H]2[C@@H]3[C@@H](O)C=C4C(C)(C)[C@@H](O)CC[C@]4(C)[C@H]3CC[C@]12C
- pEC50 [1]: 6.39
- Activity [2]: Toxic

SMILES: CNC(=O)CC[C@@H](C)[C@H]1CC[C@H]2[C@@H]3CC=C4C(C)(C)c5c(cnn5C(C)=O)C[C@]4(C)[C@H]3CC[C@]12C
- pEC50 [1]: 6.09

SMILES: CC(C)C(=O)n1cnc2c1C(C)(C)C1=CC[C@H]3[C@@H]4CC[C@H]([C@H](C)CCC(=O)N5CCOCC5)[C@@]4(C)CC[C@@H]3[C@@]1(C)C2
- pEC50 [1]: 6.37
- Activity [2]: Non-Toxic

SMILES: CCOC(=O)c1noc2c1C[C@@]1(C)C(=CC[C@H]3[C@@H]4CC[C@H]([C@H](C)CCC(=O)N5CCOCC5)[C@@]4(C)CC[C@@H]31)C2(C)C
- pEC50 [1]: 5.74

SMILES: CC(=O)N1CCC(NC(=O)CC[C@@H](C)[C@H]2CC[C@H]3[C@@H]4CC=C5C(C)(C)c6c(cnn6C(C)=O)C[C@]5(C)[C@H]4CC[C@]23C)CC1
- pEC50 [1]: 6.37

SMILES: C=CCC(O)(CC=C)CCC[C@@H](C)[C@H]1CC[C@H]2[C@@H]3[C@@H](O)C=C4C(C)(C)[C@@H](O)CC[C@]4(C)[C@H]3CC[C@]12C.Cl
- pEC50 [1]: 6.37
- Activity [2]: Toxic

SMILES: CCC(O)(CC)CCC[C@@H](C)[C@H]1CC[C@H]2[C@@H]3[C@@H](O)C=C4C(C)(C)[C@@H](O)CC[C@]4(C)[C@H]3CC[C@]12C
- pEC50 [1]: 6.39
- Activity [2]: Toxic

SMILES: CC(=O)n1ncc2c1C(C)(C)C1=CC[C@H]3[C@@H]4CC[C@H]([C@H](C)CCC(=O)NCCN5CCOCC5)[C@@]4(C)CC[C@@H]3[C@@]1(C)C2
- pEC50 [1]: 5.56

SMILES: Cc1nc2c(s1)C(C)(C)C1=CC[C@H]3[C@@H]4CC[C@H]([C@H](C)CCC(=O)O)[C@@]4(C)CC[C@@H]3[C@@]1(C)C2
- pEC50 [1]: 5.47
- Activity [2]: Non-Toxic

SMILES: CC(=O)n1ncc2c1C(C)(C)C1=CC[C@H]3[C@@H]4CC[C@H]([C@H](C)CCC(=O)N5CCCCC5)[C@@]4(C)CC[C@@H]3[C@@]1(C)C2
- pEC50 [1]: 5.90

SMILES: CC(=O)n1cnc2c1C(C)(C)C1=CC[C@H]3[C@@H]4CC[C@H]([C@H](C)C(=O)N5CCOCC5)[C@@]4(C)CC[C@@H]3[C@@]1(C)C2
- pEC50 [1]: 6.39

SMILES: Cc1nc2c(o1)C(C)(C)C1=CC[C@H]3[C@@H]4CC[C@H]([C@H](C)CCC(=O)N5CCOCC5)[C@@]4(C)CC[C@@H]3[C@@]1(C)C2
- pEC50 [1]: 4.55

SMILES: CC(=O)n1ncc2c1C(C)(C)C1=CC[C@H]3[C@@H]4CC[C@H]([C@H](C)CCC(=O)Nc5ncc([N+](=O)[O-])s5)[C@@]4(C)CC[C@@H]3[C@@]1(C)C2
- pEC50 [1]: 5.32

SMILES: C[C@H](CCC(=O)O)[C@H]1CC[C@H]2[C@@H]3CC=C4C(C)(C)c5nccnc5C[C@]4(C)[C@H]3CC[C@]12C
- pEC50 [1]: 5.30
- Activity [2]: Non-Toxic

SMILES: CC(=O)n1ncc2c1C(C)(C)C1=CC[C@H]3[C@@H]4CC[C@H]([C@H](C)CCC(=O)Nc5nc6ccccc6s5)[C@@]4(C)CC[C@@H]3[C@@]1(C)C2
- pEC50 [1]: 4.50

SMILES: CC(=O)n1cnc2c1C(C)(C)C1=C[C@H](O)[C@H]3[C@@H]4CC[C@H]([C@H](C)CCC(=O)N5CCOCC5)[C@@]4(C)CC[C@@H]3[C@@]1(C)C2
- pEC50 [1]: 5.09
- Activity [2]: Toxic

SMILES: CC(=O)n1ncc2c1C(C)(C)C1=CC[C@H]3[C@@H]4CC[C@H]([C@H](C)CCC(=O)Nc5nc6c(C)cccc6s5)[C@@]4(C)CC[C@@H]3[C@@]1(C)C2
- pEC50 [1]: 4.36

SMILES: C[C@H](CCC(=O)O)[C@H]1CC[C@H]2[C@@H]3CC=C4C(C)(C)c5nonc5C[C@]4(C)[C@H]3CC[C@]12C
- pEC50 [1]: 5.24
- Activity [2]: Non-Toxic

SMILES: C[C@H](CCC(=O)N1CCOCC1)[C@H]1CC[C@H]2[C@@H]3CC=C4C(C)(C)c5nc(N)ncc5C[C@]4(C)[C@H]3CC[C@]12C
- pEC50 [1]: 5.08

SMILES: CC(=O)n1cnc2c1C(C)(C)C1=CC[C@H]3[C@@H]4CC[C@H]([C@H](C)CCCC(=O)N5CCOCC5)[C@@]4(C)CC[C@@H]3[C@@]1(C)C2
- pEC50 [1]: 6.01

SMILES: CC(=O)n1ncc2c1C(C)(C)C1=CC[C@H]3[C@@H]4CC[C@H]([C@H](C)CCC(=O)Nc5ccccc5C)[C@@]4(C)CC[C@@H]3[C@@]1(C)C2
- pEC50 [1]: 5.35

SMILES: CCN(CC)CCO[C@H]1CC[C@@]2(C)C(=CC[C@@H]3[C@@H]2CC[C@]2(C)C(=O)CC[C@@H]32)C1.Cl
- Activity [3]: Toxic

SMILES: CC(=O)n1ncc2c1C(C)(C)C1=CC[C@H]3[C@@H]4CC[C@H]([C@H](C)CCC(=O)Nc5ccc(C)cc5)[C@@]4(C)CC[C@@H]3[C@@]1(C)C2
- pEC50 [1]: 5.27

SMILES: C[C@H](CCC(=O)O)[C@H]1CC[C@H]2[C@@H]3CC=C4C(C)(C)c5[nH]ncc5C[C@]4(C)[C@H]3CC[C@]12C
- pEC50 [1]: 5.40
- Activity [2]: Non-Toxic

SMILES: CC(=O)n1ncc2c1C(C)(C)C1=CC[C@H]3[C@@H]4CC[C@H]([C@H](C)CCC(=O)O)[C@@]4(C)CC[C@@H]3[C@@]1(C)C2
- pEC50 [1]: 5.58
- Activity [2]: Non-Toxic

SMILES: C=C(C)C(=O)n1cnc2c1C(C)(C)C1=CC[C@H]3[C@@H]4CC[C@H]([C@H](C)CCC(=O)N5CCOCC5)[C@@]4(C)CC[C@@H]3[C@@]1(C)C2
- pEC50 [1]: 6.12
- Activity [2]: Non-Toxic

SMILES: CCCNC(=O)CC[C@@H](C)[C@H]1CC[C@H]2[C@@H]3CC=C4C(C)(C)c5c(cnn5C(C)=O)C[C@]4(C)[C@H]3CC[C@]12C
- pEC50 [1]: 5.69

SMILES: C[C@H](CCC(=O)O)[C@H]1CC[C@H]2[C@@H]3CC=C4C(C)(C)c5c(cnn5-c5ccccc5)C[C@]4(C)[C@H]3CC[C@]12C
- pEC50 [1]: 5.06
- Activity [2]: Non-Toxic
